Measurements taken from ChEMBL document CHEMBL5303762, “Data for DCP probe BI-8668” (2023).
pKi: −log10 of the molar value.

Legend:
[1] = target: 5-hydroxytryptamine receptor 1B (Homo sapiens) (UniProt P28222); experiment: 5HT1B(H) Eurofins SafetyScreen44 (BI); details: filed as antagonist, Compound concentration 10.0 uM
[2] = target: Kappa-type opioid receptor (Homo sapiens) (UniProt P41145); experiment: KAPPA(KOP)_HU Eurofins SafetyScreen44 (BI); details: Compound concentration 10.0 uM
D(1B) dopamine receptor = D(1B) dopamine receptor (Homo sapiens, UniProt P21918); experiment: GPCRScan assay: inhibition of D5; design: radioligand conc. used [nm] 2.0 – 3.0, parental cells HEKT
Sequence of D(1B) dopamine receptor (P21918 whole entry): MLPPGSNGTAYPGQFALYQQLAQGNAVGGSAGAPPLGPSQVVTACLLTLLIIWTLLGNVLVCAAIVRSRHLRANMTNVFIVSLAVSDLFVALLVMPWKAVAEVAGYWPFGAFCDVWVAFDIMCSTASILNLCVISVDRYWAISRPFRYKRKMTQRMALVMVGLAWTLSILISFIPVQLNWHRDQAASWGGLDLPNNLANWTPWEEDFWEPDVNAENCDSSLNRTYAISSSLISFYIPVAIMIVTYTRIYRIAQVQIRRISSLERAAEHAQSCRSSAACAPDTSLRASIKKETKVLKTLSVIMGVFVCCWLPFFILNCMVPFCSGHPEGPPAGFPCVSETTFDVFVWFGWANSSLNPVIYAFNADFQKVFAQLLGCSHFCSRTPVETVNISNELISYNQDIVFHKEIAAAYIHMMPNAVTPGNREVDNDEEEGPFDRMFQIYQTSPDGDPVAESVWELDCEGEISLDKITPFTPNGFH

[3] = target: Amiloride-sensitive sodium channel, ENaC (Mus musculus) (UniProt Q61180+Q9WU38+Q9WU39); experiment: Inhibition of M-1 water resorption; format: functional, cell-based; details: M1, concentration not given here
[4] = target: T1, Muscarinic acetylcholine receptor M2 (Homo sapiens) (UniProt P08172); experiment: M2(H)AGON Eurofins SafetyScreen44 (BI); details: filed as agonist, Compound concentration 10.0 uM
T1 sequence (whole entry): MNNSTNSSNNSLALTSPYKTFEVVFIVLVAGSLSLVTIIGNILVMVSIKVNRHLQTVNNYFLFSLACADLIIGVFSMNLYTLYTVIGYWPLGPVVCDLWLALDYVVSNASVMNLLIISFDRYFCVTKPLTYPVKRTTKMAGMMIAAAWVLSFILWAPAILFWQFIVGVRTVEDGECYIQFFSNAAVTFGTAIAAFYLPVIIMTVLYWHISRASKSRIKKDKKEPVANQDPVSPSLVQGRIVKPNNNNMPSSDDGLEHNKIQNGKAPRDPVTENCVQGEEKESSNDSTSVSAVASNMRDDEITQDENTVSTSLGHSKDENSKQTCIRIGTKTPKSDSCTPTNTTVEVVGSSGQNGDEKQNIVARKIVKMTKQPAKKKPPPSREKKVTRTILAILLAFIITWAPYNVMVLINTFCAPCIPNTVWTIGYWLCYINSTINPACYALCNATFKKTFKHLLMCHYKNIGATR

[5] = target: T2, Alpha-1A adrenergic receptor (Homo sapiens) (UniProt P35348); experiment: ALPHA1A(H)ANTAG Eurofins SafetyScreen44 (BI); details: filed as antagonist, Compound concentration 10.0 uM
T2 sequence (whole entry): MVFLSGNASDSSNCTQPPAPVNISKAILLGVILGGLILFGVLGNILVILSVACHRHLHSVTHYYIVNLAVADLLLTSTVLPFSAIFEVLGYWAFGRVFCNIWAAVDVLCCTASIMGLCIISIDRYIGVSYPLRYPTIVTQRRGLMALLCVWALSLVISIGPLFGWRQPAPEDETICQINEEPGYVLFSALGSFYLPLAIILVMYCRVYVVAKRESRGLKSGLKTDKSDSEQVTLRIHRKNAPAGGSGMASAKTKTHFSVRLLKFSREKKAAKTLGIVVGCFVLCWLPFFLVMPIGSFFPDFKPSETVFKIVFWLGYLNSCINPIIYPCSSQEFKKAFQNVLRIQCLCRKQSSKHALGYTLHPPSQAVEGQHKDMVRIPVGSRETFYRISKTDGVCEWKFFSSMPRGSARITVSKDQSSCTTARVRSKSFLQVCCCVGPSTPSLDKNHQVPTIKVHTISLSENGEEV

[6] = target: T1, Muscarinic acetylcholine receptor M2 (Homo sapiens); experiment: M2(H)ANTAG Eurofins SafetyScreen44 (BI); details: filed as antagonist, Compound concentration 10.0 uM
[7] = target: Kappa-type opioid receptor (Rattus norvegicus) (UniProt P34975); experiment: KAPPA/R Eurofins SafetyScreen44 (BI); details: Compound concentration 10.0 uM
[8] = target: Prostaglandin G/H synthase 1 (Homo sapiens) (UniProt P23219); experiment: COX1_HU Eurofins SafetyScreen44 (BI); details: Compound concentration 10.0 uM
[9] = target: 5-hydroxytryptamine receptor 1D (Homo sapiens) (UniProt P28221); details: Compound concentration 10.0 uM
Sequence of 5-hydroxytryptamine receptor 1D (Homo sapiens) (P28221 whole entry): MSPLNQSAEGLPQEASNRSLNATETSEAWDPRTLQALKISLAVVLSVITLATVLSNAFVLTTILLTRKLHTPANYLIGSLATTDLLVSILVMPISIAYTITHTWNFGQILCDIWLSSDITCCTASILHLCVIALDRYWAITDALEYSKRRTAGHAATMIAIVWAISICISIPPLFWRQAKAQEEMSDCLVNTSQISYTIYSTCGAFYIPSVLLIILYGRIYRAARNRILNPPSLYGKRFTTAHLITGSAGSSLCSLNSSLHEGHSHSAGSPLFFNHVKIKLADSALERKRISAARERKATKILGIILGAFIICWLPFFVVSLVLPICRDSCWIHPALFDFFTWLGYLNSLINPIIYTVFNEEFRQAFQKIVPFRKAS

[10] = target: D(2) dopamine receptor (Homo sapiens) (UniProt P14416); details: Compound concentration 10.0 uM
[11] = target: Sodium-dependent serotonin transporter (Homo sapiens) (UniProt P31645); details: Compound concentration 10.0 uM
Sequence of Sodium-dependent serotonin transporter (Homo sapiens) (P31645 whole entry, looked up): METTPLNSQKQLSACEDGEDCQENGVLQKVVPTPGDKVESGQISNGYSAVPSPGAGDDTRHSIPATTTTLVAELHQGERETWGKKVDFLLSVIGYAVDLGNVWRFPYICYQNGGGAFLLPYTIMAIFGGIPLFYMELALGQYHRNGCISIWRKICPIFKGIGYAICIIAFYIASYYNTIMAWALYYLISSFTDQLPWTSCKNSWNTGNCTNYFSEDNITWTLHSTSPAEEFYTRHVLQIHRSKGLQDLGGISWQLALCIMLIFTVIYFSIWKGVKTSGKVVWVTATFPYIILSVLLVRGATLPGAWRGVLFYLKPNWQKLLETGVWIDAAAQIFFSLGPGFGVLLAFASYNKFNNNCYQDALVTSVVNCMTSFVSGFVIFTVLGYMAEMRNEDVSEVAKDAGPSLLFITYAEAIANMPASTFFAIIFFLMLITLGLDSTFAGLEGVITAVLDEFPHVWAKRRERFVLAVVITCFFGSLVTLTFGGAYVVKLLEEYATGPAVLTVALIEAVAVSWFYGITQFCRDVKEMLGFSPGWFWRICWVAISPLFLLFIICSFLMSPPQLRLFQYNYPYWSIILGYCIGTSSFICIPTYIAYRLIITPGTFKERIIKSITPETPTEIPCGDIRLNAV

[12] = target: Sodium-dependent noradrenaline transporter (Homo sapiens) (UniProt P23975); details: Compound concentration 10.0 uM
Sequence of Sodium-dependent noradrenaline transporter (Homo sapiens) (P23975 whole entry): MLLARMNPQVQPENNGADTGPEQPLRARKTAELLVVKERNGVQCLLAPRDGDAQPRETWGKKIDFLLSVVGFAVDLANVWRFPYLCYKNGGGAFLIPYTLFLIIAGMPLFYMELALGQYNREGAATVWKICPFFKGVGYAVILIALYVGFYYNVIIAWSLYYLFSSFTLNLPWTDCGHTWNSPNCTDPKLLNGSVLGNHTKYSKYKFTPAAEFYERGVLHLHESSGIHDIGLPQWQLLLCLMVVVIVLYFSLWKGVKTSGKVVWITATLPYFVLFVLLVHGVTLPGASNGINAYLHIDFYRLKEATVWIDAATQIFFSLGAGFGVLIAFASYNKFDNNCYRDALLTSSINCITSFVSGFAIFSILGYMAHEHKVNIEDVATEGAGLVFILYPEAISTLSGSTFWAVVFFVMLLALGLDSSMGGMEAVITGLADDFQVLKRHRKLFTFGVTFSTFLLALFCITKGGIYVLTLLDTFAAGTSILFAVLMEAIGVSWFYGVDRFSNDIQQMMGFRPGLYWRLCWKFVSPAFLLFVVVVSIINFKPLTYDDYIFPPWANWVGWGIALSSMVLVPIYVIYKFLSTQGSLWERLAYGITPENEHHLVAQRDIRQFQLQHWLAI

[13] = target: Sodium-dependent dopamine transporter (Homo sapiens) (UniProt Q01959); details: Compound concentration 10.0 uM
Sequence of Sodium-dependent dopamine transporter (Homo sapiens) (Q01959 whole entry): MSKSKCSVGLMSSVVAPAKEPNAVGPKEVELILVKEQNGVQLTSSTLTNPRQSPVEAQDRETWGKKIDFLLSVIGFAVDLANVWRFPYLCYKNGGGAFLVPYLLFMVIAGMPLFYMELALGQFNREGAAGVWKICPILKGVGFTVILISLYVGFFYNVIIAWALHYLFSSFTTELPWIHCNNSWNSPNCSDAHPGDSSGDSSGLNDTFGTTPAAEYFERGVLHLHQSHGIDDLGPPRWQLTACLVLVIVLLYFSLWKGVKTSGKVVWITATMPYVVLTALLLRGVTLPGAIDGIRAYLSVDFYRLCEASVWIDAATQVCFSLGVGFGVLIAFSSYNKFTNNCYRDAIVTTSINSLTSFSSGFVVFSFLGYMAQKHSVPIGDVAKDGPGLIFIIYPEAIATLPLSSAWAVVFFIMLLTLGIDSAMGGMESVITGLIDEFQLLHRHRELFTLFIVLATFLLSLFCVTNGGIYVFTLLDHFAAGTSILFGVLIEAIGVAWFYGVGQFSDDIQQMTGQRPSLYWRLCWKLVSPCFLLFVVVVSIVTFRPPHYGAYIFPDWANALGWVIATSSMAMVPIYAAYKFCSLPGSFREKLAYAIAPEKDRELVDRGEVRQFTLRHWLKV

[14] = target: Delta-type opioid receptor (Homo sapiens) (UniProt P41143); details: Compound concentration 10.0 uM
[15] = target: Kappa-type opioid receptor (Homo sapiens) (UniProt P41145); details: Compound concentration 10.0 uM
[16] = target: Histamine H1 receptor (Homo sapiens) (UniProt P35367); details: Compound concentration 10.0 uM
Sequence of Histamine H1 receptor (Homo sapiens) (P35367 whole entry): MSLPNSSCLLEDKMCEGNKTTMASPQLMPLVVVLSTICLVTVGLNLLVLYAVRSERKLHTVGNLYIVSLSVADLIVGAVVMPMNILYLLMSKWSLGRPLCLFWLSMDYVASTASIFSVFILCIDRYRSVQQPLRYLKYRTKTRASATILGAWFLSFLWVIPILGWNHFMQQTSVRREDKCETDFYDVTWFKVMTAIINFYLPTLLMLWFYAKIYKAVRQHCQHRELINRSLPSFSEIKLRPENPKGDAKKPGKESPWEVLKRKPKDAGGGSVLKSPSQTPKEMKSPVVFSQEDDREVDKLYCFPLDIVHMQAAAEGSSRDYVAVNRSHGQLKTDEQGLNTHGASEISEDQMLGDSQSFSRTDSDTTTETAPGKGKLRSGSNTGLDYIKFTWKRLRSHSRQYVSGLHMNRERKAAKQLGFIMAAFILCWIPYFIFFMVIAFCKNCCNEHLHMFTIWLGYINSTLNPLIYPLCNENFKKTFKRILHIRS

[17] = target: Histamine H2 receptor (Homo sapiens) (UniProt P25021); details: Compound concentration 10.0 uM
Histamine H3 receptor = Histamine H3 receptor (Homo sapiens, UniProt Q9Y5N1); details: Compound concentration 10.0 uM
[18] = target: Alpha-1B adrenergic receptor (Homo sapiens) (UniProt P35368); details: Compound concentration 10.0 uM
Sequence of Alpha-1B adrenergic receptor (Homo sapiens) (P35368 whole entry): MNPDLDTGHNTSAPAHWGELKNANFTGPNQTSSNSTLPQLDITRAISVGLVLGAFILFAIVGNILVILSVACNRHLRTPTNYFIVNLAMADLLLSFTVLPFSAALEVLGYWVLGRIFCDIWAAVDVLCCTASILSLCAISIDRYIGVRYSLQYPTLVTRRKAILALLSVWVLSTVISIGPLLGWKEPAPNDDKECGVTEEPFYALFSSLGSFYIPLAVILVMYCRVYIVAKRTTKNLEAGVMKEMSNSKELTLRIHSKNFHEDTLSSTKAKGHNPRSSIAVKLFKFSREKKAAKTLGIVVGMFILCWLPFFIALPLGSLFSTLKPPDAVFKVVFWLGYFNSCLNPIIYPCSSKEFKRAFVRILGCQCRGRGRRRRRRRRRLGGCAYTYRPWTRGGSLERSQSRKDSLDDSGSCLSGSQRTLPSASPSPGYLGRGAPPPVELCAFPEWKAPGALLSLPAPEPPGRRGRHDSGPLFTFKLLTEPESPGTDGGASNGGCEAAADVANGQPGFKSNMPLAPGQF

[19] = target: Alpha-2C adrenergic receptor (Homo sapiens) (UniProt P18825); details: Compound concentration 10.0 uM
Sequence of Alpha-2C adrenergic receptor (Homo sapiens) (P18825 whole entry): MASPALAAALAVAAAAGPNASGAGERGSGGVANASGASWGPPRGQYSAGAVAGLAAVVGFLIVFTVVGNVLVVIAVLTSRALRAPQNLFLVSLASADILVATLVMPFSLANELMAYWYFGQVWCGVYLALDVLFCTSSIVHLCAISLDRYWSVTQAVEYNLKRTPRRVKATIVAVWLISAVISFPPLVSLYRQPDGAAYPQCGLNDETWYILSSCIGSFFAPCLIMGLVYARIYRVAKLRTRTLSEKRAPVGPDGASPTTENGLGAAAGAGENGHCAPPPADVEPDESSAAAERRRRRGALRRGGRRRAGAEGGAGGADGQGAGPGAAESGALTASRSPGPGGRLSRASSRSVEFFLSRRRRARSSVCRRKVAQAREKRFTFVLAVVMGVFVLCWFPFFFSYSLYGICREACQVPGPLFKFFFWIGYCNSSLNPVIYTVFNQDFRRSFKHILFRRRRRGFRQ

[20] = target: Beta-2 adrenergic receptor (Homo sapiens) (UniProt P07550); details: Compound concentration 10.0 uM
Sequence of Beta-2 adrenergic receptor (Homo sapiens) (P07550 whole entry, looked up): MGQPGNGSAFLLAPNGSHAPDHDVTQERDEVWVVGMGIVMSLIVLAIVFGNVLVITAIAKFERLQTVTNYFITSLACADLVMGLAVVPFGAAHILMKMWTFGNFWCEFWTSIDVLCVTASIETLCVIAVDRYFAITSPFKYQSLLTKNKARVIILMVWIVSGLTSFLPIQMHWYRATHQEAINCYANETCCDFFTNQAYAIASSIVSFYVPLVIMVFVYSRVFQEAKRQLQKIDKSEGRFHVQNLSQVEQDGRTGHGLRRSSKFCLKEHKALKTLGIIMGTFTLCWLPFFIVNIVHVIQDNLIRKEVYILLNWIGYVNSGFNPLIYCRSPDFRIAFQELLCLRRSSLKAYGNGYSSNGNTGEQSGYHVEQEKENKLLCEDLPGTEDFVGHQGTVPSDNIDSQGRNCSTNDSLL

[21] = target: T3, Muscarinic acetylcholine receptor M1 (Homo sapiens) (UniProt P11229); details: Compound concentration 10.0 uM
T3 sequence (whole entry): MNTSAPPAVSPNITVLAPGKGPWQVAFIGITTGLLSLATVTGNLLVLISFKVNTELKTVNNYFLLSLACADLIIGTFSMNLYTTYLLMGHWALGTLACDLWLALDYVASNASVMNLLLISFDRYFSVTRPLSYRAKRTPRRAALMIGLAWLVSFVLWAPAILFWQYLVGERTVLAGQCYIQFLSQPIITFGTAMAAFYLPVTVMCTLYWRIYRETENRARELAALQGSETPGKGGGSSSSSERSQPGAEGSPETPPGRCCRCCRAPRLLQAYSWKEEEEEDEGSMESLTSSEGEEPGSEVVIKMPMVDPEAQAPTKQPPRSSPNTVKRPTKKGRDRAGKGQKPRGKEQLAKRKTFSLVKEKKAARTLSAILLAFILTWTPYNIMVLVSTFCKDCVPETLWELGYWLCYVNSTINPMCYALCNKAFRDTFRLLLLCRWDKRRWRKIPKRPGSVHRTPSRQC

[22] = target: T1, Muscarinic acetylcholine receptor M2 (Homo sapiens); details: Compound concentration 10.0 uM
[23] = target: Muscarinic acetylcholine receptor M4 (Homo sapiens) (UniProt P08173); details: Compound concentration 10.0 uM

Sequence of Kappa-type opioid receptor (Homo sapiens) (P41145 whole entry): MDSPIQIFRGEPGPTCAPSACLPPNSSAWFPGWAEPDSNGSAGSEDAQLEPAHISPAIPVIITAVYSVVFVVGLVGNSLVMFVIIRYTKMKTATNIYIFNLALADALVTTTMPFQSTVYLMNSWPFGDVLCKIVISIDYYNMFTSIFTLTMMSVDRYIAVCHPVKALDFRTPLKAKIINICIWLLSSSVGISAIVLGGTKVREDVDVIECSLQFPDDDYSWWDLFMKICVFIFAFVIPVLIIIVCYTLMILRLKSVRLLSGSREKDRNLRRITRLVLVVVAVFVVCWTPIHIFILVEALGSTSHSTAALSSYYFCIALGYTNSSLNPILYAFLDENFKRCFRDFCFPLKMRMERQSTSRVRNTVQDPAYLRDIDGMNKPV

**Q.** Which results are given for `CCn1c(CNC(=O)c2ncc(C)nc2N)[n+](CC)c2ccc(C(=O)N(C)CN(C)C)cc21`?
**A.** residual activity [1]: 94%; residual activity [2]: 97%

**Q.** With `CCn1c(CNC(=O)c2nc(Cl)cnc2N)[n+](CC)c2ccc(C(=O)N(C)CCN(C)C)cc21` as the compound, how does the pKi (D(1B) dopamine receptor; read-out: Ki) read?
**A.** 5.39

**Q.** What about the Ki (D(1B) dopamine receptor; read-out: pKi (converted)) of the same compound?
**A.** 4.07 µM

**Q.** And the inhibition [3]?
**A.** 81%

**Q.** What about the residual activity [4] of the same compound?
**A.** 85.2%

**Q.** What about the residual activity [5] of the same compound?
**A.** 89%

**Q.** What about the residual activity [6] of the same compound?
**A.** 91%

**Q.** And the residual activity [7]?
**A.** 101%

**Q.** What about the residual activity [8] of the same compound?
**A.** 106%

**Q.** What about the inhibition [9] of the same compound?
**A.** 22.8%

**Q.** What about the inhibition [10] of the same compound?
**A.** -8.76%

**Q.** And the inhibition [11]?
**A.** 8.39%

**Q.** And the inhibition [12]?
**A.** -7.54%

**Q.** And the inhibition [13]?
**A.** 12.4%

**Q.** What about the inhibition [14] of the same compound?
**A.** 3.99%

**Q.** What about the inhibition [15] of the same compound?
**A.** 25.3%

**Q.** What about the inhibition [16] of the same compound?
**A.** -1.28%

**Q.** What about the inhibition [17] of the same compound?
**A.** 27.9%

**Q.** And the inhibition (Histamine H3 receptor)?
**A.** 85.4%

**Q.** What about the inhibition [18] of the same compound?
**A.** 44.9%

**Q.** And the inhibition [19]?
**A.** 0.47%

**Q.** What about the inhibition [20] of the same compound?
**A.** -5.7%

**Q.** What about the inhibition [21] of the same compound?
**A.** 10.2%

**Q.** What about the inhibition [22] of the same compound?
**A.** 44.6%

**Q.** What about the inhibition [23] of the same compound?
**A.** 7.09%
